Data set [1] in a line: Pharmacokinetics after intravenous bolus injection. It is filed as in vivo, rat. To be noted: 30 mg/kg single i.v. bolus; rat. On the procedure:
Adult male Wistar rats weighing between 180 and 240 g were used to determine the pharmacokinetics of GPE and […]. To facilitate intravenous bolus injections and blood sampling, all rats were surgically implanted with an indwelling jugular venous cannula under halothane anesthesia three days before the experiment. Groups of six rats were given a single intravenous bolus injection of either 30 mg/kg GPE or 10 mg/kg […] dissolved in 0.1M succinate buffer (pH 6.5). […] The samples were centrifuged at 3000 g for 15 min at 4° C. and the plasma removed and stored at -80° C. until extraction and assay by either radioimmunoassay (“RIA”) or reverse phase HPLC. The RIA and HPLC methods used were conventional. […] The k and half-life (t1/2) were calculated from the slope of the linear regression line in the elimination phase of the semi-logarithmic plot of plasma concentration versus time as: Log. C=-kt/2.3+log C0. Results were expressed as mean±standard error.

Data set [2] can be described thus: Degradation of GPE in vivo and in vitro.
The subject of data set [3] is MeCP2 knock-out mice. Particulars: U.S. Publication No. 2009/0099077; cited from earlier work.
Data set [4] concerns wild type young mice. Particulars: Tropea et al., 2006; cited from earlier work.
Data set [5] has as its system cortical neurons injured with okadaic acid. Kind of data set: Okadaic acid injury of cortical cultures, MTT survival. In kind it is cell-based, rat. To be noted: 10 μM, 24 hours incubation, MTT-assay. The protocol:
One cortical hemisphere from a postnatal day 1 rat was used and collected into 4 ml of DMEM. Trituration was performed using a 5 ml glass pipette and an 18-gauge needle. The cell suspension was sieved through a 100 μm cell strainer and washed in 50 ml DMEM (centrifugation for 5 min at 250 g). The sediment was resuspended in 20 ml DMEM+10% fetal calf serum. The suspension was added into two […] flasks (10 ml per flask) and cultivated at 37° C. in the presence of 10% CO2 followed by a change of the medium twice a week. When cells reached confluence, they were washed three times with PBS, adjusted to Neurobasal/B27 and incubated for another 3 days. This supernatant was frozen for transient storage at −80° C. […]
The cells were triturated once with a glass Pasteur pipette in 1 ml of Neurobasal/B27 medium and subsequently twice by using a 1 ml insulin syringe with a 22 gauge needle. […] Cells were counted and adjusted to 50,000 cells per 60 μl. […]
To cause toxic injury to neurons, we exposed neurons to 1:100 parts of okadaic acid at concentrations of 30 nM or 100 nM and 0.5 mM 3-nitropropionic acid (for cerebellar microexplants only). […] The survival rate was determined by a colorimetric end-point MTT-assay at 595 nm in a multi-well plate reader. For the cerebellar microexplants four windows (field of 0.65 mm^2) with highest cell density were chosen and cells displaying neurite outgrowth were counted.

The values below come from patent publication US9212204B2, “Treatment of rett syndrome using glycyl-L-2-methylprolyl-L-glutamic acid” (priority 2011, dated 2015).

For the compound `NCC(=O)N1CCC[C@H]1C(=O)N[C@@H](CCC(=O)O)C(=O)O` [GPE, glycyl-L-prolyl-L-glutamic acid], the first order rate constant in data set [1] stood at 0.15 ± 0.014 min⁻¹. Also, the degradation result in data set [2] is given as “rapidly degraded”. In data set [3], the “effect on life span” value is “prolong life” and the “effect on neuronal function” value is given as “increase neuronal function”. The OD plasticity entry in data set [4] was “reduce”. The neuroprotection in data set [5] was 64%.
